Km data for 2 compounds are collected here from paper PMC4804155 (Chembiochem : a European journal of chemical biology, 2015).

Like-named read-outs stand apart in the source and are kept apart here.

Experiment [1] concerns the target MOF (male absent on the first, MYST1, HAT8) (Homo sapiens, UniProt Q9H7Z6).
In experiment [2] the target is T1, MOF (male absent on the first, MYST1, HAT8) (Homo sapiens, UniProt Q9H7Z6, I317A).
T1 sequence (Q9H7Z6 174-447 I317A limits assumed): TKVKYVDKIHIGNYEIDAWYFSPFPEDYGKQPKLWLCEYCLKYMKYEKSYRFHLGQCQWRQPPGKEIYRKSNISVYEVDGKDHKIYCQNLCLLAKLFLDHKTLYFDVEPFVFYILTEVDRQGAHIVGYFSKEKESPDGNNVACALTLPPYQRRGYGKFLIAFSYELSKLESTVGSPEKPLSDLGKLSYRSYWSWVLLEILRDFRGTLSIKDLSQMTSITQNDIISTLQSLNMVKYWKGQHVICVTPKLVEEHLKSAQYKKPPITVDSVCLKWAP

In experiment [3] the target is T1, MOF (male absent on the first, MYST1, HAT8). The experiment is described as follows: CPM fluorogenic enzyme kinetics, Km. In kind it is biochemical.

MOF (male absent on the first, MYST1, HAT8) (Homo sapiens, UniProt Q9H7Z6), sequence (Q9H7Z6 2-458): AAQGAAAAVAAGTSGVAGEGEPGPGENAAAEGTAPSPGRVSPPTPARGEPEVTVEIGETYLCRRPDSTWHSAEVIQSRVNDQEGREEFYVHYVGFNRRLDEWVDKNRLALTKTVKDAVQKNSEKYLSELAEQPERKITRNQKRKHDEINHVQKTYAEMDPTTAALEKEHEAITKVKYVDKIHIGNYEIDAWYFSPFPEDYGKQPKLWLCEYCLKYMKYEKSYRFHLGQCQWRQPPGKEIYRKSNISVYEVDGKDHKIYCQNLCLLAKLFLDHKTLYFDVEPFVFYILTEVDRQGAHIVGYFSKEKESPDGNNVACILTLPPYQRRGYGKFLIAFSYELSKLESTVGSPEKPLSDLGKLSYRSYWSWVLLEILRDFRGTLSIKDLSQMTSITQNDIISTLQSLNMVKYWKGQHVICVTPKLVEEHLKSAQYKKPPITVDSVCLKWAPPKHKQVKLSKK

`CC(=O)SCCNC(=O)CCNC(=O)[C@H](O)C(C)(C)COP(=O)(O)OP(=O)(O)OC[C@H]1O[C@@H](n2cnc3c(N)ncnc32)[C@H](O)[C@@H]1OP(=O)(O)O` [acetyl-CoA]: the figures for the Km in experiment [1] and in experiment [2] were 1.3 ± 0.1 µM and 3.5 ± 0.2 µM, respectively.
With `CC(C)(COP(=O)(O)OP(=O)(O)OC[C@H]1O[C@@H](n2cnc3c(N)ncnc32)[C@H](O)[C@@H]1OP(=O)(O)O)[C@@H](O)C(=O)NCCC(=O)NCCSC(=O)CCN=[N+]=[N-]` [3-azidopropanoyl CoA], in experiment [3], the Michaelis-Menten constant (Km) was 2.7 ± 0.2 µM.

As a reminder, the Km is the concentration of substrate that gives half-maximal velocity.
